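Grown in 96-well plates, cells were treated for 48 hours with each compound at five concentrations. Insufficient inhibition: endpoint recorded as highest concentration tested. GI50 = concentration required for 50% inhibition of growth. Definition used: TGI = concentration required for complete inhibition of growth.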
How the values were obtained:
Assay in all cases: DTP human tumour cell line panel, 48 h
786-0 renal = system: 786-0 renal
A498 renal = system: A498 renal
A549 NSCLC = system: A549 NSCLC
ACHN renal = system: ACHN renal
BT-549 breast = system: BT-549 breast
CAKI-1 renal = system: CAKI-1 renal
CCRF-CEM leukemia = system: CCRF-CEM leukemia
COLO 205 colon = system: COLO 205 colon
DU-145 prostate = system: DU-145 prostate
EKVX NSCLC = system: EKVX NSCLC
HCC-2998 colon = system: HCC-2998 colon
HCT-116 colon = system: HCT-116 colon
HCT-15 colon = system: HCT-15 colon
HL-60(TB) leukemia = system: HL-60(TB) leukemia
HOP-62 NSCLC = system: HOP-62 NSCLC
HOP-92 NSCLC = system: HOP-92 NSCLC
HS 578T breast = system: HS 578T breast
HT29 colon = system: HT29 colon
IGROV1 ovarian = system: IGROV1 ovarian
K-562 leukemia = system: K-562 leukemia
KM12 colon = system: KM12 colon
LOX IMVI melanoma = system: LOX IMVI melanoma
M14 melanoma = system: M14 melanoma
MALME-3M melanoma = system: MALME-3M melanoma
MCF7 breast = system: MCF7 breast
MDA-MB-231 breast = system: MDA-MB-231 breast
MDA-MB-435 = system: MDA-MB-435
MDA-MB-468 breast = system: MDA-MB-468 breast
MOLT-4 leukemia = system: MOLT-4 leukemia
NCI-H226 lung = system: NCI-H226 lung
NCI-H23 lung = system: NCI-H23 lung
NCI-H460 lung = system: NCI-H460 lung
NCI-H522 lung = system: NCI-H522 lung
OVCAR-3 ovarian = system: OVCAR-3 ovarian
OVCAR-4 ovarian = system: OVCAR-4 ovarian
OVCAR-5 ovarian = system: OVCAR-5 ovarian
OVCAR-8 ovarian = system: OVCAR-8 ovarian
PC-3 prostate = system: PC-3 prostate
RPMI-8226 leukemia = system: RPMI-8226 leukemia
RXF 393 renal = system: RXF 393 renal
SF-268 CNS = system: SF-268 CNS
SF-295 CNS = system: SF-295 CNS
SF-539 CNS = system: SF-539 CNS
SK-MEL-2 melanoma = system: SK-MEL-2 melanoma
SK-MEL-28 melanoma = system: SK-MEL-28 melanoma
SK-MEL-5 melanoma = system: SK-MEL-5 melanoma
SK-OV-3 ovarian = system: SK-OV-3 ovarian
SN12C renal = system: SN12C renal
SNB-19 CNS = system: SNB-19 CNS
SNB-75 CNS = system: SNB-75 CNS
SR leukemia = system: SR leukemia
SW-620 colon = system: SW-620 colon
T-47D breast = system: T-47D breast
TK-10 renal = system: TK-10 renal
U251 CNS = system: U251 CNS
UACC-257 melanoma = system: UACC-257 melanoma
UACC-62 melanoma = system: UACC-62 melanoma
UO-31 renal = system: UO-31 renal
NCI/ADR-RES ovarian = system: NCI/ADR-RES ovarian

## COc1ccc2nc(Cl)c(-c3cc(-c4ccccc4)nc(=O)[nH]3)cc2c1
786-0 renal
  GI50: 12.4 µM
  TGI: 40.2 µM
A498 renal
  GI50: 26.1 µM
  TGI: 74.3 µM
A549 NSCLC
  GI50: 20.7 µM
  TGI: > 100 µM
ACHN renal
  GI50: 14.7 µM
  TGI: 32.3 µM
BT-549 breast
  GI50: 11.9 µM
  TGI: 28.7 µM
CAKI-1 renal
  GI50: 12 µM
  TGI: 28.9 µM
CCRF-CEM leukemia
  GI50: 2.96 µM
  TGI: 34.3 µM
COLO 205 colon
  GI50: 17 µM
  TGI: 41.5 µM
DU-145 prostate
  GI50: 8.82 µM
  TGI: 29.3 µM
EKVX NSCLC
  GI50: 24 µM
  TGI: > 100 µM
HCC-2998 colon
  GI50: 16.5 µM
  TGI: 31.8 µM
HCT-116 colon
  GI50: 6.67 µM
  TGI: 26.2 µM
HCT-15 colon
  GI50: 6.66 µM
  TGI: 33.6 µM
HL-60(TB) leukemia
  GI50: 5.32 µM
  TGI: 33 µM
HOP-62 NSCLC
  GI50: 14.8 µM
  TGI: 34.4 µM
HOP-92 NSCLC
  GI50: 6.8 µM
  TGI: 42.5 µM
HS 578T breast
  GI50: 24.8 µM
  TGI: > 100 µM
HT29 colon
  GI50: 18.3 µM
  TGI: 40.8 µM
IGROV1 ovarian
  GI50: 17.9 µM
  TGI: 44.1 µM
K-562 leukemia
  GI50: 2.98 µM
  TGI: 59.2 µM
KM12 colon
  GI50: 4.25 µM
  TGI: 17.1 µM
LOX IMVI melanoma
  GI50: 3.86 µM
  TGI: 33.5 µM
M14 melanoma
  GI50: 18.5 µM
  TGI: 46.8 µM
MALME-3M melanoma
  GI50: 15.9 µM
  TGI: 31.9 µM
MCF7 breast
  GI50: 4.22 µM
  TGI: 31.6 µM
MDA-MB-231 breast
  GI50: 16.7 µM
  TGI: 43.7 µM
MDA-MB-435
  GI50: 14.8 µM
  TGI: 34.1 µM
MDA-MB-468 breast
  GI50: 11.4 µM
  TGI: 33.8 µM
MOLT-4 leukemia
  GI50: 3.63 µM
  TGI: 54.1 µM
NCI-H226 lung
  GI50: 12.7 µM
  TGI: 41.7 µM
NCI-H23 lung
  GI50: 12 µM
  TGI: 32.7 µM
NCI-H460 lung
  GI50: 5.69 µM
  TGI: 20.6 µM
NCI-H522 lung
  GI50: 17 µM
  TGI: 42.4 µM
OVCAR-3 ovarian
  GI50: 7.42 µM
  TGI: 23.8 µM
OVCAR-4 ovarian
  GI50: 20.4 µM
  TGI: 79.9 µM
OVCAR-5 ovarian
  GI50: 18.2 µM
  TGI: 38.1 µM
OVCAR-8 ovarian
  GI50: 16.6 µM
  TGI: 88.8 µM
PC-3 prostate
  GI50: 14.2 µM
  TGI: 56 µM
RPMI-8226 leukemia
  GI50: 3.08 µM
  TGI: 13.5 µM
RXF 393 renal
  GI50: 13.3 µM
  TGI: 33 µM
SF-268 CNS
  GI50: 14.6 µM
  TGI: 35 µM
SF-295 CNS
  GI50: 21.3 µM
  TGI: 67.2 µM
SF-539 CNS
  GI50: 11.2 µM
  TGI: 23.9 µM
SK-MEL-2 melanoma
  GI50: 18.5 µM
  TGI: 40.9 µM
SK-MEL-28 melanoma
  GI50: 15.9 µM
  TGI: 31 µM
SK-MEL-5 melanoma
  GI50: 16.8 µM
  TGI: 31.5 µM
SK-OV-3 ovarian
  GI50: 20.9 µM
  TGI: 51.2 µM
SN12C renal
  GI50: 19.4 µM
  TGI: 59 µM
SNB-19 CNS
  GI50: 10.7 µM
  TGI: 26 µM
SNB-75 CNS
  GI50: 13.1 µM
  TGI: 37.1 µM
SR leukemia
  GI50: 1.55 µM
  TGI: 5.47 µM
SW-620 colon
  GI50: 6.44 µM
  TGI: 35.1 µM
T-47D breast
  GI50: 25.8 µM
  TGI: > 100 µM
TK-10 renal
  GI50: 29 µM
  TGI: > 100 µM
U251 CNS
  GI50: 4.45 µM
  TGI: 19.9 µM
UACC-257 melanoma
  GI50: 18.1 µM
  TGI: 37.6 µM
UACC-62 melanoma
  GI50: 13.8 µM
  TGI: 28.6 µM
UO-31 renal
  GI50: 10.5 µM
  TGI: 22.4 µM

## O=C(Nc1ccc(OCC(=O)c2ccccc2)cc1)Nc1ccc(Cl)c(C(F)(F)F)c1
786-0 renal
  GI50: 4.12 µM
  TGI: 32.5 µM
A498 renal
  GI50: 3.59 µM
  TGI: 18.2 µM
A549 NSCLC
  GI50: 3.64 µM
  TGI: > 100 µM
ACHN renal
  GI50: 3.17 µM
  TGI: > 100 µM
BT-549 breast
  GI50: 11.5 µM
  TGI: > 100 µM
CAKI-1 renal
  GI50: 3.31 µM
  TGI: > 100 µM
CCRF-CEM leukemia
  GI50: 3.54 µM
  TGI: > 100 µM
COLO 205 colon
  GI50: 4.32 µM
  TGI: > 100 µM
DU-145 prostate
  GI50: 6.81 µM
  TGI: > 100 µM
EKVX NSCLC
  GI50: 3.26 µM
  TGI: > 100 µM
HCC-2998 colon
  GI50: 3.37 µM
  TGI: > 100 µM
HCT-116 colon
  GI50: 3.69 µM
  TGI: > 100 µM
HCT-15 colon
  GI50: 2.92 µM
  TGI: > 100 µM
HL-60(TB) leukemia
  GI50: 3 µM
  TGI: 40.2 µM
HOP-62 NSCLC
  GI50: 5.76 µM
  TGI: 35.2 µM
HOP-92 NSCLC
  GI50: 3.48 µM
  TGI: 17.5 µM
HS 578T breast
  GI50: 3.51 µM
  TGI: 31.1 µM
HT29 colon
  GI50: 3.34 µM
  TGI: > 100 µM
IGROV1 ovarian
  GI50: 4.38 µM
  TGI: > 100 µM
K-562 leukemia
  GI50: 3.66 µM
  TGI: > 100 µM
M14 melanoma
  GI50: 2.97 µM
  TGI: > 100 µM
MALME-3M melanoma
  GI50: 3.11 µM
  TGI: > 100 µM
MCF7 breast
  GI50: 3.37 µM
  TGI: > 100 µM
MDA-MB-231 breast
  GI50: 2.87 µM
  TGI: 11.4 µM
MDA-MB-468 breast
  GI50: 2.41 µM
  TGI: 7.05 µM
MOLT-4 leukemia
  GI50: 2.48 µM
  TGI: > 100 µM
NCI-H226 lung
  GI50: 3.73 µM
  TGI: > 100 µM
NCI-H23 lung
  GI50: 3.28 µM
  TGI: 48.9 µM
NCI-H460 lung
  GI50: 3.07 µM
  TGI: > 100 µM
NCI-H522 lung
  GI50: 1.96 µM
  TGI: 6.15 µM
NCI/ADR-RES ovarian
  GI50: 3.45 µM
  TGI: > 100 µM
OVCAR-3 ovarian
  GI50: 2.76 µM
  TGI: > 100 µM
OVCAR-4 ovarian
  GI50: 4.39 µM
  TGI: > 100 µM
OVCAR-5 ovarian
  GI50: 5.28 µM
  TGI: > 100 µM
OVCAR-8 ovarian
  GI50: 4.31 µM
  TGI: > 100 µM
PC-3 prostate
  GI50: 2.83 µM
  TGI: > 100 µM
RPMI-8226 leukemia
  GI50: 3.51 µM
  TGI: > 100 µM
RXF 393 renal
  GI50: 2.78 µM
  TGI: 14.3 µM
SF-268 CNS
  GI50: 3.51 µM
  TGI: > 100 µM
SF-295 CNS
  GI50: 2.74 µM
  TGI: 13.5 µM
SF-539 CNS
  GI50: 3.28 µM
  TGI: 12.8 µM
SK-MEL-2 melanoma
  GI50: 2.07 µM
  TGI: 4.8 µM
SK-MEL-28 melanoma
  GI50: 2.97 µM
  TGI: 25.8 µM
SK-MEL-5 melanoma
  GI50: 2.87 µM
  TGI: 9.54 µM
SK-OV-3 ovarian
  GI50: 8.74 µM
  TGI: 60.7 µM
SN12C renal
  GI50: 3.18 µM
  TGI: > 100 µM
SNB-19 CNS
  GI50: 3.16 µM
  TGI: > 100 µM
SNB-75 CNS
  GI50: 2.27 µM
  TGI: 19.9 µM
SR leukemia
  GI50: 2.52 µM
  TGI: > 100 µM
SW-620 colon
  GI50: 3.74 µM
  TGI: > 100 µM
T-47D breast
  GI50: 3.13 µM
  TGI: > 100 µM
TK-10 renal
  GI50: 6.25 µM
  TGI: 40.3 µM
U251 CNS
  GI50: 2.95 µM
  TGI: 12.8 µM
UACC-257 melanoma
  GI50: 3.78 µM
  TGI: > 100 µM
UACC-62 melanoma
  GI50: 2.26 µM
  TGI: 6.2 µM
UO-31 renal
  GI50: 3.18 µM
  TGI: > 100 µM

Reference: PubChem BioAssay (NCI)
